Results from BindingDB's records for doi:10.1021/jm900095y (National Institute On Drug Abuse-Intramural Research Program, 2009).

Assay: Agonist activity at human D3 receptor expressed in HEK293 cells assessed as stimulation of mitogenesis

Q: For `O=C(NCCC(O)CN1CCN(c2cccc(Cl)c2Cl)CC1)c1cc2cc(I)ccc2o1` (centres undefined), which EC50 is on record?
A: 84 nM

Q: For `O=C(NCCC(O)CN1CCN(c2cccc(Cl)c2Cl)CC1)c1cc2ccccc2o1` (centres undefined), which EC50 is on record?
A: 22.8 nM

Assay: Antagonist activity at human D3 receptor expressed in HEK293 cells assessed as inhibition of quinpirole-stimulated mitogenesis

Q: For `COc1ccccc1N1CCN(CC(O)CCNC(=O)c2cc3cc(I)ccc3[nH]2)CC1` (centres undefined), which IC50 is on record?
A: 173 nM

Q: For `O=C(NC/C=C/CN1CCN(c2cccc(Cl)c2Cl)CC1)c1cc2ccccc2[nH]1`, which IC50 is on record?
A: 7 nM

Q: Which IC50 does the source give for `COc1ccccc1N1CCN(C/C=C/CNC(=O)c2cc3ccccc3o2)CC1` here?
A: 14.9 nM

Q: Which IC50 does the source give for `COc1ccccc1N1CCN(CCCCNC(=O)c2cc3cc(I)ccc3o2)CC1` [5-Iodo-benzofuran-2-carboxylic acid {4-[4-(2-methoxy-phenyl)-piperazin-1-yl]-butyl}-amide] here?
A: 22.9 nM

Q: Which IC50 does the source give for `COc1ccc2[nH]c(C(=O)NCCC(O)CN3CCN(c4ccccc4OC)CC3)cc2c1` (centres undefined) here?
A: 1.58 nM

Q: Which IC50 does the source give for `COc1ccccc1N1CCN(CC(O)CCNC(=O)c2cc3cc(F)ccc3[nH]2)CC1` (centres undefined) here?
A: 1.76 nM

Q: For `COc1ccccc1N1CCN(CC(O)CCNC(=O)c2cc3ccccc3s2)CC1` (centres undefined), which IC50 is on record?
A: 39.1 nM

Q: For `COc1ccccc1N1CCN(CCCCNC(=O)c2cc3ccccc3o2)CC1` [Benzofuran-2-carboxylic acid {4-[4-(2-methoxy-phenyl)-piperazin-1-yl]-butyl}-amide], which IC50 is on record?
A: 2.39 nM

Q: Which IC50 does the source give for `O=C(NCCC(O)CN1CCN(c2cccc(Cl)c2Cl)CC1)c1cc2cc(I)ccc2[nH]1` (centres undefined) here?
A: 38 nM

Q: Which IC50 does the source give for `COc1ccccc1N1CCN(C/C=C/CNC(=O)c2cc3ccccc3s2)CC1` here?
A: 1.09 nM

Q: With `COc1ccccc1N1CCN(CCCCNC(=O)c2cc3ccccc3s2)CC1` [Benzo[b]thiophene-2-carboxylic acid {4-[4-(2-methoxy-phenyl)-piperazin-1-yl]-butyl}-amide] as the compound, how does the IC50 read?
A: 0.22 nM

Q: Which IC50 does the source give for `COc1ccc2[nH]c(C(=O)NCCC(O)CN3CCN(c4cccc(Cl)c4Cl)CC3)cc2c1` (centres undefined) here?
A: 1.51 nM

Q: With `COc1ccccc1N1CCN(CC(O)CCNC(=O)c2cc3cc(I)ccc3o2)CC1` (centres undefined) as the compound, how does the IC50 read?
A: 14.5 nM

Q: With `CCCOc1ccccc1N1CCN(CC(O)CCNC(=O)c2cc3ccccc3[nH]2)CC1` (centres undefined) as the compound, how does the IC50 read?
A: 6.51 nM

Q: For `O=C(NCC(O)CCN1CCN(c2cccc(Cl)c2Cl)CC1)c1cc2ccccc2[nH]1` (centres undefined), which IC50 is on record?
A: 25.7 nM

Q: For `COc1ccccc1N1CCN(CC(O)CCNC(=O)c2cc3ccccc3o2)CC1` (centres undefined), which IC50 is on record?
A: 11.2 nM

Q: Which IC50 does the source give for `COc1ccccc1N1CCN(CC(O)CCNC(=O)c2cc3ccccc3[nH]2)CC1` (centres undefined) here?
A: 12.1 nM
